Assay results reported in BindingDB's records for doi:10.1016/j.ejmech.2015.02.042 (University of Naples, 2015).

These molecules were tested against Prostaglandin E synthase (Homo sapiens) (UniProt O14684) (assay: Inhibition of human mPGES1).
Prostaglandin E synthase (Homo sapiens), sequence (O14684 whole entry, looked up): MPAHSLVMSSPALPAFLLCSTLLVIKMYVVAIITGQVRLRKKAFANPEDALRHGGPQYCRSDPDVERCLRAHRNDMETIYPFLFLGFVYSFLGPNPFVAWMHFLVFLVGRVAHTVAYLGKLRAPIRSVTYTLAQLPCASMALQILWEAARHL

**Q.** Which IC50 does the source give for `CCCCCCCCCCCC1=C(O)C(=O)C=C(O)C1=O` [CHEBI:4778] here?
**A.** 0.21 µM

The molecules below were run against Prostaglandin E synthase (Homo sapiens) (UniProt O14684) (assay: Inhibition of mPGES1 in IL-1beta stimulated human A549 cell microsomal membranes assessed as reduction in PGE2 synthase activity after 15 mins using PGH2 substrate by RP-HPLC method).

**Q.** For `CCCCCCC1=C(OC)C(OC)=CC(=O)C1=O`, which IC50 is on record?
**A.** > 10 µM

**Q.** With `CCCCC1=C(OC)C(OC)=CC(=O)C1=O` as the molecule, how does the IC50 read?
**A.** > 10 µM

**Q.** `COC1=CC(=O)C(O)=C(C/C=C(\C)CC/C=C(\C)CCC=C(C)C)C1=O` was tested. Which IC50 did it give?
**A.** > 10 µM

**Q.** How did the IC50 turn out when `CCCCCCCCCCCC1=C(O)C(=O)C=C(O)C1=O` [CHEBI:4778] was run?
**A.** 0.21 µM

**Q.** Which IC50 does the source give for `CCCCCCC1=C(OC)C(=O)C=C(OC)C1=O` here?
**A.** > 10 µM

**Q.** Which IC50 does the source give for `CCCCCCCCCCC1=C(O)C(=O)C=C(OC)C1=O` here?
**A.** > 10 µM

**Q.** How did the IC50 turn out when `CCCCCCCCCCC1=C(OC)C(=O)C=C(OC)C1=O` was run?
**A.** > 10 µM

**Q.** `CCCCCCCCCCCCCCC1=C(OC)C(OC)=CC(=O)C1=O` was tested. Which IC50 did it give?
**A.** > 10 µM

**Q.** `CCCCCCCCC1=C(O)C(=O)C=C(OC)C1=O` was tested. Which IC50 did it give?
**A.** > 10 µM

**Q.** How did the IC50 turn out when `CCCCC1=C(OC)C(=O)C=C(OC)C1=O` was run?
**A.** > 10 µM

**Q.** Which IC50 does the source give for `CCCCCCCCCCCCC1=C(OC)C(=O)C=C(OC)C1=O` here?
**A.** 4.7 µM

**Q.** With `CCCCCCCCC1=C(O)C(=O)C=C(O)C1=O` as the molecule, how does the IC50 read?
**A.** 0.8 µM

**Q.** How did the IC50 turn out when `CCCCCCCCCCCCCC1=C(O)C(=O)C=C(O)C1=O` [CHEBI:8779] was run?
**A.** 0.9 µM

**Q.** `CCCCCCCCCCC1=C(O)C(=O)C=C(O)C1=O` was tested. Which IC50 did it give?
**A.** 1 µM

**Q.** With `CCCCCCCCCCCCCCCCC1=C(O)C(=O)C=C(OC)C1=O` as the molecule, how does the IC50 read?
**A.** > 10 µM

**Q.** For `CCCCCCCCCCCC1=C(OC)C(=O)C=C(OC)C1=O`, which IC50 is on record?
**A.** > 10 µM

**Q.** How did the IC50 turn out when `CCCCCCCCCCCCC1=C(O)C(=O)C=C(OC)C1=O` was run?
**A.** 5.8 µM

**Q.** With `CCCCCCCCCCCCCC1=C(O)C(=O)C=C(OC)C1=O` [Sorgoleone-364] as the molecule, how does the IC50 read?
**A.** 6.1 µM

**Q.** With `CCCCCCCCC1=C(OC)C(OC)=CC(=O)C1=O` as the molecule, how does the IC50 read?
**A.** > 10 µM

**Q.** `CCCCCCCCCCCCCCC1=C(O)C(=O)C=C(O)C1=O` was tested. Which IC50 did it give?
**A.** 1.6 µM

**Q.** `CC(C)=CCC/C(C)=C/CC/C(C)=C/CC1=C(O)C(=O)C=C(O)C1=O` was tested. Which IC50 did it give?
**A.** > 10 µM

**Q.** For `CCCCCCCCCCCCCC1=C(OC)C(=O)C=C(OC)C1=O`, which IC50 is on record?
**A.** 1.8 µM

**Q.** With `CCCCCCCCCCCCCCCC1=C(OC)C(OC)=CC(=O)C1=O` as the molecule, how does the IC50 read?
**A.** > 10 µM

**Q.** How did the IC50 turn out when `CCCCCCC1=C(O)C(=O)C=C(OC)C1=O` was run?
**A.** > 10 µM

**Q.** How did the IC50 turn out when `COC1=CC(=O)C(O)=C(C/C=C(\C)CCC=C(C)C)C1=O` was run?
**A.** > 10 µM

**Q.** `CCCCC1=C(O)C(=O)C=C(OC)C1=O` was tested. Which IC50 did it give?
**A.** > 10 µM

**Q.** Which IC50 does the source give for `CCCCCCCCC1=C(OC)C(=O)C=C(OC)C1=O` here?
**A.** > 10 µM

**Q.** `CCCCCCCCCCCCCCCCC1=C(O)C(=O)C=C(O)C1=O` was tested. Which IC50 did it give?
**A.** > 10 µM

**Q.** For `CCCCCCCCCCCCCCCC1=C(OC)C(=O)C=C(OC)C1=O`, which IC50 is on record?
**A.** 7.2 µM

**Q.** `COC1=CC(=O)C(OC)=C(C/C=C(\C)CC/C=C(\C)CCC=C(C)C)C1=O` was tested. Which IC50 did it give?
**A.** > 10 µM

**Q.** With `CCCCCCCCCCC1=C(OC)C(OC)=CC(=O)C1=O` as the molecule, how does the IC50 read?
**A.** > 10 µM

**Q.** Which IC50 does the source give for `COC1=CC(=O)C(OC)=C(C/C=C(\C)CCC=C(C)C)C1=O` here?
**A.** > 10 µM

**Q.** For `COC1=CC(=O)C(=O)C(C/C=C(\C)CC/C=C(\C)CCC=C(C)C)=C1OC`, which IC50 is on record?
**A.** > 10 µM

**Q.** Which IC50 does the source give for `CCCCCCCCCCCCCCC1=C(OC)C(=O)C=C(OC)C1=O` here?
**A.** 4.4 µM

**Q.** `CC(C)=CCC/C(C)=C/CC1=C(O)C(=O)C=C(O)C1=O` was tested. Which IC50 did it give?
**A.** > 10 µM

**Q.** `CCCCCCCCCCCCCCC1=C(O)C(=O)C=C(OC)C1=O` was tested. Which IC50 did it give?
**A.** > 10 µM

**Q.** With `CCCCCCCCCCCCCC1=C(OC)C(OC)=CC(=O)C1=O` as the molecule, how does the IC50 read?
**A.** > 10 µM

**Q.** How did the IC50 turn out when `CCCCCCCCCCCCCCCC1=C(O)C(=O)C=C(O)C1=O` was run?
**A.** 2.1 µM

**Q.** For `CCCCCCC1=C(O)C(=O)C=C(O)C1=O`, which IC50 is on record?
**A.** > 10 µM

**Q.** Which IC50 does the source give for `CCCCCCCCCCCCC1=C(O)C(=O)C=C(O)C1=O` here?
**A.** 3.1 µM

**Q.** `CCCCC1=C(O)C(=O)C=C(O)C1=O` was tested. Which IC50 did it give?
**A.** > 10 µM

**Q.** For `CCCCCCCCCCCC1=C(O)C(=O)C=C(OC)C1=O` [CHEBI:65842], which IC50 is on record?
**A.** 9.1 µM

**Q.** Which IC50 does the source give for `COC1=CC(=O)C(=O)C(C/C=C(\C)CCC=C(C)C)=C1OC` here?
**A.** > 10 µM

**Q.** For `CCCCCCCCCCCCCCCCC1=C(OC)C(=O)C=C(OC)C1=O`, which IC50 is on record?
**A.** > 10 µM

**Q.** Which IC50 does the source give for `CCCCCCCCCCCCCCCC1=C(O)C(=O)C=C(OC)C1=O` here?
**A.** 9.3 µM

**Q.** For `CCCCCCCCCCCC1=C(OC)C(OC)=CC(=O)C1=O`, which IC50 is on record?
**A.** > 10 µM

**Q.** For `CCCCCCCCCCCCC1=C(OC)C(OC)=CC(=O)C1=O`, which IC50 is on record?
**A.** > 10 µM
